Some results are limits rather than exact numbers.

This is an account of results in US20260344662A1, “METHOD FOR INDUCING HIGH-TEMPERATURE STRESS TOLERANCE IN PLANTS” (AJINOMOTO CO., INC., priority 2023, published 2026).

The subject of one test is SLHsFA2. In words: Example 3: expression of heat stress tolerance-related gene SLHsFA2 (real-time PCR). It is filed as in vivo, tomato (cultivar: Regina). The note with it: 5 mM Val; 10 μM IAA; 50 μM PAA; combinations 5 mM Val + 10 μM IAA, 5 mM Val + 50 μM PAA; 24 hours after spraying; n=3; relative to Actin. As to the method: (§1) Plants of tomato (cultivar: Regina) were used in evaluation of the genes.
(§2) Two tomato seeds were sown in a slit pot having a diameter of 10.5 cm (10.5 cm (top diameter)×8.8 cm (height)) filled with potting soil, and cultivated in a biotron at a temperature of 23 °C, with a light period of 14 hours (6:00 to 20:00) and a dark period of 10 hours (20:00 to 6:00). As the potting soil, a mixture of Kumiai Nippi Engei Baido No. 1 (Nihon Hiryo Co., Ltd.) and vermiculite at 3:1 (volume ratio) was used. After one week, thinning was performed to leave one plant, and cultivation was continued.
(§3) The material was dissolved in water before use. Twenty-five days after the sowing, 0.1% spreading agent “Approach BI” (Kao Corporation) was added to the material treatment solution, and the resulting solution was sprayed over the entire plant. For each treatment group, three tomato plants were used, and 2 mL of the treatment solution per plant was sprayed. Twenty-four hours after the spraying, a 1.5 cm×1.5 cm section was collected as a sample from the second true leaf.
(§4) From each leaf sample collected from tomato, RNA was extracted using a Maxwell™ RSC Plant RNA Kit (Promega) according to the manufacturer's instructions. Subsequently, single-stranded cDNA was synthesized from the extracted RNA using a ReverTra Ace™ qPCR RT Master Mix (TOYOBO). As genes associated with heat stress tolerance in tomato, the following two genes were evaluated: Heat shock factor A2 (HsFA2) and Ascorbate peroxidases (APX). Using the above cDNA as a template, real-time PCR was performed using the primers shown in Table 6, and the expression level of each gene was calculated as a relative expression level with respect to the Actin gene.
Background: Quantitative PCR measures a nucleic acid by following its amplification.

Another test has as its system rice. In words: Example 5: rice pot test, seed weight and seed fertility under heat stress. It is filed as in vivo, cultivar Nipponbare. The note with it: PAA 10 μM; for fertile seed weight compared to water treatment (in words) / seed fertility compared to water treatment (in words) / total seed weight compared to water treatment (in words) / Fertile seed weight, relative value to heat treatment + water treatment group / Fertility (seed fertility), relative value to heat treatment + water treatment group / Total seed weight, relative value to heat treatment + water treatment group: Val 5 mM; for Fertile seed weight, relative value to heat treatment + water treatment group / Fertility (seed fertility), relative value to heat treatment + water treatment group / Total seed weight, relative value to heat treatment + water treatment group: heat treatment (38 °C), water = 100%. Here is the method:
• Rice cultivar: Nipponbare
Prior to sowing, rice seeds were sterilized with 25% antiformin and 70% ethanol. Filter paper was placed in a Petri dish, and rice seeds were placed on the filter paper. The filter paper was sufficiently wetted with sterile water, and the rice seeds were germinated in a dark place at 25 °C. Six days after the sowing, the germinated rice seeds were planted in a cell tray. As the potting soil in the cell tray, a mixed soil of Kumiai Baido No. 1: vermiculite=7:3 (v/v) was used. The rice plants planted in the cell tray were cultivated in a chamber under the following conditions: 14 h/light period at 28 °C and 10 h/dark period at 22 °C.
On June 20, rice seedlings cultivated in the chamber for 18 days were transplanted to magnet pots, and cultivated until harvest in an outdoor cultivation water tank apparatus. In the magnet pots, 2.3 kg of a potting soil of Kumiai Baido No. 1: vermiculite=7:3 (v/v) was used, and two rice seedlings were transplanted to each pot. During the cultivation, water was appropriately managed. From one month after the transplantation, additional fertilizer was applied with ammonium sulfate and Hyponex three times at intervals of one week.
At the heading stage, one week after the start of heading of rice, material spraying and heat treatment were each performed twice at intervals of one week. The heat treatment was performed about 16 hours after the spraying of a material. Five pots were included in each treatment group as replicates. The material was diluted with water to prepare a treatment solution, and 0.1% spreading agent “Approach BI” (Kao Corporation) was added to the treatment solution, followed by spraying 60 mL per pot of the prepared aqueous material solution onto the whole plants. For the heat treatment, the rice plants were placed in a mini-house for 6 hours from 10:00 to 16:00, and the temperature was about 37 °C to 39 °C. After completion of the heat treatment, the plants were further cultivated, and on October 8, […] after transplanting to Wagner pots, an aboveground part of each plant was cut and harvested.
The cut aboveground parts of the plants, including seeds, were dried for 15 days, and the total seed weight, the fertile seed weight, and the seed fertility were examined. The fertile seed weight is the weight of seeds obtained by removing sterile seeds of empty husks using a threshing machine. From the total seeds, 10 mL of seeds (about 100 to 150 grains) was randomly taken out into a 50-mL Falcon tube, and fertile seeds and sterile seeds were separated from each other, followed by counting their numbers. The proportion (percentage) of the fertile seeds to the total number of seeds was defined as the seed fertility.

Test [1] relates to tomato. The test is described as follows: Example 2: heat stress tolerance of tomato (number and weight of fruits) with Val and/or PAA. The test is classed as in vivo, cultivar Regina. The note with it: Val 5 mM, PAA 10 μM. Here is the method: In the present Example, Val (valine) and PAA (phenylacetic acid) were applied to tomato plants individually or in combination, and their heat stress tolerance-inducing effects were evaluated.
Same as in Example 1, except that the five treatment groups shown in Table 3 were evaluated under the cultivation conditions shown in Table 4 (the maximum high temperature was 37 °C).

For a further test, the system named is SLAPX. In words: Example 3: expression of heat stress tolerance-related gene SLAPX (real-time PCR). It is filed as in vivo, tomato (cultivar: Regina). Particulars: 5 mM Val; 10 μM IAA; 50 μM PAA; combinations 5 mM Val + 10 μM IAA, 5 mM Val + 50 μM PAA; 24 hours after spraying; n=3; relative to Actin. Here is the method:
as §1, §2, §3, §4

Test [2] relates to tomato. In words: Example 4: tomato pot test, harvested fruit weight under heat stress. It is filed as in vivo, tomato: Home Momotaro, rootstock (Boranchi). The note with it: PAA 10 μM, Val 5 mM, PAA higher than Val. Here is the method: • Tomato: Home Momotaro, rootstock (Boranchi).
Sandy loam (SL) was filled into a planter at 0.18 m^2/planter, and two tomato plants were planted therein. As a fertilizer, OK-F-1 (OAT Agrio Co., Ltd.) was used. The fertilizer was diluted 2000-fold with water, and applied as appropriate at 2000 mL/plant/application. Topping was performed with one leaf left above the fourth truss, and axillary buds were removed as appropriate. Cultivation was performed in a glasshouse under natural light.
Five treatment groups were evaluated (Table 7). The water-treated non-heat stress treatment group was used as a positive control. The other four treatment groups were subjected to heat treatment. The heat treatment was performed twice. The first treatment was performed for 10 days at the pre-flowering stage of the first truss, and the second treatment was performed for 10 days at the flowering stage of the fourth truss. The heat treatment was performed by opening and closing side windows and roof windows of the glasshouse (with a target maximum temperature of 35 °C in the glasshouse).
The material was applied by spraying onto stems and leaves at 50 mL per plant on the start day of the heat treatment and three days thereafter. To each material, a spreading agent (Approach BI (Kao)) was added to a final concentration of 0.05%.
Harvesting and examination were performed 11 times until the fourth truss matured. […]

Test [3] concerns tomato. In words: Example 1: heat stress tolerance of tomato (number of fruits) with Val and/or IAA. The test is classed as in vivo, cultivar Regina. The note with it: heat stress max 35 °C; foliar spray; Val 5 mM or 10 mM; IAA 10 μM; Val 5 mM & IAA 10 μM. As to the method:
In the present Example, Val (valine) and IAA (indole-3-acetic acid) were applied to tomato either alone or in combination, and heat stress tolerance-inducing effects were evaluated.
• Tomato: cultivar Regina
Two tomato seeds were sown in a pot (Sakata) having a soil diameter of 10.5 cm and containing 350 g of a mixed soil of potting soil (Kumiai No. 1) and vermiculite (potting soil:vermiculite=3:1 (v:v)). Two weeks later, the tomato plants were thinned to leave one plant. Thirty-five days after the sowing, soil fertilization was performed with 100 mL of a 500-fold diluted Hyponex solution. Water supplementation was performed as appropriate.
The non-heat stress treatment+water treatment group (No. 1) was used as a positive control. The heat stress treatment groups included five treatment groups (Nos. 2 to 6). The material treatment and the heat treatment were performed in two separate sets. The first set of material treatment was performed 40 days after the sowing, when flowering of the tomato plants had started. The second set of material treatment was performed 46 days after the sowing. The material treatment was performed by preparing an aqueous material solution containing 0.1% spreading agent “Approach BI”, and performing foliar spraying. To each tomato plant, 6 mL of the aqueous material solution was sprayed. […]

Test [4] has as its system plant male sterility caused by high temperatures. Particulars: in vivo; cited from earlier work.
Another test has as its system plants. The note with it: in vivo; cited from earlier work.

Turning to `O=C(O)Cc1ccccc1` [PAA, phenylacetic acid], the “expression of SLHsfA2 compared to Mock (water)” value with SLHsFA2 was “no difference in expression”. In addition, the “increase in seed fertility” value in the test with rice (Val 5 mM & PAA 10 μM, heat treatment) was not below 20%. Moreover, in the test with rice (heat treatment), the “fertile seed weight compared to water treatment (in words)” value is “neither the treatment with Val alone nor the treatment with PAA alone showed significant differences”, the “seed fertility compared to water treatment (in words)” value was “increased the seed fertility” and the “total seed weight compared to water treatment (in words)” value is “neither the treatment with Val alone nor the treatment with PAA alone showed significant differences”. Further, in the test with rice, the “Fertile seed weight, relative value to heat treatment + water treatment group” value worked out at 105.6%; the “Fertility (seed fertility), relative value to heat treatment + water treatment group” value is 110.8%; the “Total seed weight, relative value to heat treatment + water treatment group” value worked out at 101.8%. In the test with tomato [1], the “number of tomato fruits compared to heat stress treatment+water treatment group” value is listed as “no large difference”. Also, the “expression of SLAPX compared to Mock (water)” value in the test with SLAPX is “no difference in expression”. In addition, the “harvested fruit weight compared to water-sprayed heat stress group” value with tomato [2] was “exceeded the water-sprayed group”.
In the case of `O=C(O)Cc1c[nH]c2ccccc12` [IAA, indole-3-acetic acid], in the test on tomato [3], the “number of tomato fruits compared to heat stress treatment+water treatment group” value was “markedly increased”. Also, the “expression of SLHsfA2 compared to Mock (water)” value in the test on SLHsFA2 is given as “no difference in expression”. Moreover, the “expression of SLAPX compared to Mock (water)” value in the test on SLAPX is on record as “no difference in expression”. In test [4], the “reversal of plant male sterility caused by high temperatures” value was “function of reversing plant male sterility caused by high temperatures”.
Take `CC(C)[C@H](N)C(=O)O` [Val, L-valine]: the “number of tomato fruits compared to heat stress treatment+water treatment group” value in the test on tomato [3] is listed as “markedly increased”. Further, in the test with plants, the “induction of heat stress tolerance in plants” value is reported as “function of inducing heat stress tolerance in plants”. Also, in the test with SLHsFA2, the “expression of SLHsfA2 compared to Mock (water)” value is recorded as “no difference in expression”. Besides, in the test on rice (heat treatment), the “fertile seed weight compared to water treatment (in words)” value is “neither the treatment with Val alone nor the treatment with PAA alone showed significant differences”, the “seed fertility compared to water treatment (in words)” value is “increased the seed fertility” and the “total seed weight compared to water treatment (in words)” value is reported as “neither the treatment with Val alone nor the treatment with PAA alone showed significant differences”. Besides, in the test on rice, the “Fertile seed weight, relative value to heat treatment + water treatment group” value stood at 98.7%; the “Fertility (seed fertility), relative value to heat treatment + water treatment group” value was determined as 123.9%; the “Total seed weight, relative value to heat treatment + water treatment group” value was 93.9%. In addition, the “number of tomato fruits compared to heat stress treatment+water treatment group” value in the test on tomato [1] is “no large difference”. Also, the “expression of SLAPX compared to Mock (water)” value in the test on SLAPX is given as “no difference in expression”. Moreover, in the test on tomato [2], the “harvested fruit weight compared to water-sprayed heat stress group” value is listed as “exceeded the water-sprayed group”.
